The source of these data is patent publication US4428942A, “Analogs of somatostatin” (The Salk Institute for Biological Studies, priority 1982, dated 1984).

Experiment [1] has as its system release of growth hormone induced by isobutyl methyl xanthine in pituitary cells. It is filed as cell-based, rat. How it is done: To determine the effectiveness of the peptides to inhibit the release of growth hormone, in vitro radioimmunoassays are carried out using the SS analogs in side-by-side comparison with equimolar concentrations of somatostatin-14 having a known effectiveness to inhibit the release of growth hormone induced by the application of isobutyl methyl xanthine to pituitary cells. Cultures are used which include cells of rat pituitary glands removed some four to five days previously in a system that minimizes enzymatic degradation, generally following the procedure set forth in Vale et al., Methods in Enzymology, Hormones and Cyclic Nucleotides (1975) Vol. 37, p. 82. Both cultures of a defined standard medium and cultures which are considered optimal for the secretion of growth hormone, as a result of having additions of either 2% or 10% of serum from a foetal calf, are used for the comparative testing.

A further experiment concerns secretion of glucagon. More on the design: species or system rats. To be noted: in vivo. How it is done: (§1) In vivo experiments are carried out with the analogs, using the procedure described in Brown et al., Metabolism (1976) Vol. 25, pp. 1501-1503, to determine the potency, relative to somatostatin-14, to inhibit the secretion of glucagon and insulin stimulated by the administration of arginine to groups of six rats.

Another experiment concerns isolated rabbit ileum. The procedure: The analogs are tested in vitro in isolated rabbit ileum using the modified Ussing chamber technique, as described in Amer. J. of Physiol., 225:776-780 (1973). Unidirectional chloride fluxes are determined and used to characterize bi-directional fluxes following the addition of an SS-analog. Changes are measured with varying concentrations, and the potency to inhibit ion transport is quantitated and expressed as a percentage of the potency of SS-14.

A further experiment deals with secretion of insulin. To be noted: in vivo. How it is done: as §1
The mark [2] stands for this setting: cultured rat pituitary cells, isobutyl methyl xanthine-induced release, SS-14 = 100.
Where [3] appears, read: arginine-stimulated, rats, SS-14 = 100.
Where [4] appears, read: isolated rabbit ileum, Ussing chamber, chloride fluxes, SS-14 = 100.

Read-outs that look alike come from different tables or passages of the source. Bridge positions count the residues as written; N and C are the ends. Square brackets hold non-standard residues; d marks the D form. Peptide text beside a SMILES is read from it.

Take `C[C@@H](O)[C@@H]1NC(=O)[C@H](CCCCN)NC(=O)[C@@H](Cc2c[nH]c3ccccc23)NC(=O)[C@H](Cc2ccccc2)NC(=O)[C@H](Cc2ccccc2)NC(=O)[C@@H](N)CSSC[C@@H](C(=O)O)NC(=O)[C@H](CO)NC(=O)[C@H](Cc2ccccc2)NC1=O` [Peptide 6, des-AA^1,2,4,5,12,[D-Trp^8]--SS] (H-CFF[dW]KTFSC-OH; disulfide 1-9): the “GH (potency for the inhibition of GH release relative to SS-14)” value in experiment [1] was determined as 45%. In addition, the “Glucagon (potency to inhibit glucagon secretion relative to SS-14)” value with secretion of glucagon (rat) was determined as 20%. Further, the “Ion Transport (potency to inhibit ion transport expressed as a percentage of the potency of SS-14)” value in the experiment with isolated rabbit ileum was determined as 257%. Also, in the experiment with secretion of insulin (rat), the “Insulin (potency to inhibit insulin secretion relative to SS-14)” value is 70%.

Turning to `C[C@H](N)C(=O)NCC(=O)N[C@H]1CSSC[C@H](C(=O)O)NC(=O)[C@H](CO)NC(=O)[C@H]([C@@H](C)O)NC(=O)[C@H](Cc2ccccc2)NC(=O)[C@H]([C@@H](C)O)NC(=O)[C@H](CCCCN)NC(=O)[C@H](Cc2c[nH]c3ccccc23)NC(=O)[C@H](Cc2ccccc2)NC(=O)[C@H](Cc2ccccc2)NC(=O)[C@H](CC(N)=O)NC(=O)[C@H](CCCCN)NC1=O` [Peptide 17, [D-Cys^14]--SS], the “GH (potency for the inhibition of GH release relative to SS-14)” value in experiment [1] (setting [2]) was found to be 270%. Besides, the “Glucagon (potency to inhibit glucagon secretion relative to SS-14)” value in the experiment on secretion of glucagon (setting [3]) was determined as 310%. Besides, the “Ion Transport (potency to inhibit ion transport expressed as a percentage of the potency of SS-14)” value in the experiment with isolated rabbit ileum (setting [4]) was 336%. Besides, the “Insulin (potency to inhibit insulin secretion relative to SS-14)” value in the experiment with secretion of insulin (setting [3]) was 20%.

On to `C[C@H](N)C(=O)NCC(=O)N[C@H]1CSSC[C@@H](C(=O)O)NC(=O)[C@H](CO)NC(=O)[C@H]([C@@H](C)O)NC(=O)[C@H](Cc2ccccc2)NC(=O)[C@H]([C@@H](C)O)NC(=O)[C@H](CCCCN)NC(=O)[C@H](Cc2c[nH]c3ccccc23)NC(=O)[C@H](Cc2ccccc2)NC(=O)[C@H](Cc2ccccc2)NC(=O)[C@H](CC(N)=O)NC(=O)[C@@H](CCCCN)NC1=O` [Peptide 15, [D-Lys^4]--SS], for which, in experiment [1] (setting [2]), the “GH (potency for the inhibition of GH release relative to SS-14)” value was found to be 22%. The “Glucagon (potency to inhibit glucagon secretion relative to SS-14)” value in the experiment with secretion of glucagon (setting [3]) was found to be 1%. The “Ion Transport (potency to inhibit ion transport expressed as a percentage of the potency of SS-14)” value with isolated rabbit ileum (setting [4]) is on record as 139%. The “Insulin (potency to inhibit insulin secretion relative to SS-14)” value in the experiment on secretion of insulin (setting [3]) is reported as 1%.

As for `C[C@H](N)C(=O)NCC(=O)N[C@H]1CSSC[C@@H](C(=O)O)NC(=O)[C@H](CO)NC(=O)[C@H]([C@@H](C)O)NC(=O)[C@H](Cc2ccccc2)NC(=O)[C@H]([C@@H](C)O)NC(=O)[C@H](CCCCN)NC(=O)[C@H](Cc2c[nH]c3ccccc23)NC(=O)[C@H](Cc2ccccc2)NC(=O)[C@@H](Cc2ccccc2)NC(=O)[C@H](CC(N)=O)NC(=O)[C@H](CCCCN)NC1=O` [Peptide 16, [D-Phe^6]--SS], in experiment [1] (setting [2]), the “GH (potency for the inhibition of GH release relative to SS-14)” value is listed as 5%. Further, the “Glucagon (potency to inhibit glucagon secretion relative to SS-14)” value in the experiment on secretion of glucagon (setting [3]) was < 1%. Further, the “Ion Transport (potency to inhibit ion transport expressed as a percentage of the potency of SS-14)” value with isolated rabbit ileum (setting [4]) amounted to 10%. Also, the “Insulin (potency to inhibit insulin secretion relative to SS-14)” value in the experiment with secretion of insulin (setting [3]) is given as < 1%.

Take `C[C@H](N)C(=O)NCC(=O)N[C@H]1CSSC[C@@H](C(=O)O)NC(=O)[C@H](CO)NC(=O)[C@H]([C@@H](C)O)NC(=O)[C@H]([C@@H](C)O)NC(=O)[C@H](CCCCN)NC(=O)[C@H](Cc2c[nH]c3ccccc23)NC(=O)[C@H](Cc2ccccc2)NC(=O)[C@H](Cc2ccccc2)NC(=O)[C@H](CC(N)=O)NC(=O)[C@H](CCCCN)NC1=O` [Peptide 8, des-Phe^11 --SS] (H-AGCKNFFWKTTSC-OH; disulfide 3-13): the “GH (potency for the inhibition of GH release relative to SS-14)” value in experiment [1] is on record as 2%. In addition, the “Glucagon (potency to inhibit glucagon secretion relative to SS-14)” value in the experiment on secretion of glucagon (rat) is < 1%. Besides, the “Ion Transport (potency to inhibit ion transport expressed as a percentage of the potency of SS-14)” value in the experiment with isolated rabbit ileum came out at 34%. Also, in the experiment on secretion of insulin (rat), the “Insulin (potency to inhibit insulin secretion relative to SS-14)” value was < 1%.

Take `C[C@H](N)C(=O)NCC(=O)N[C@H]1CSSC[C@@H](C(=O)O)NC(=O)[C@H](CO)NC(=O)[C@H](Cc2ccccc2)NC(=O)[C@H]([C@@H](C)O)NC(=O)[C@H](CCCCN)NC(=O)[C@H](Cc2c[nH]c3ccccc23)NC(=O)[C@H](Cc2ccccc2)NC(=O)[C@H](Cc2ccccc2)NC(=O)[C@H](CC(N)=O)NC(=O)[C@H](CCCCN)NC1=O` [Peptide 7, des-Thr^12 --SS] (H-AGCKNFFWKTFSC-OH; disulfide 3-13): in experiment [1], the “GH (potency for the inhibition of GH release relative to SS-14)” value is reported as 2%. Moreover, the “Glucagon (potency to inhibit glucagon secretion relative to SS-14)” value with secretion of glucagon (rat) is on record as < 1%. The “Ion Transport (potency to inhibit ion transport expressed as a percentage of the potency of SS-14)” value in the experiment on isolated rabbit ileum is reported as 21%. Besides, in the experiment with secretion of insulin (rat), the “Insulin (potency to inhibit insulin secretion relative to SS-14)” value is listed as < 1%.
